One assay deals with T1, TrkA (Homo sapiens, UniProt P04629).
T1 construct: expressed in transfected cells; host or cells: U2OS
In words: cell-based Enzyme Fragment Complementation (EFC) assay, U2OS cells over-expressing TrkA. The note with it: compound pre-mixed with ligand (NGF), final ligand concentration 10 ng/mL, 3 hours at room temperature, read-out: TrkA potency expressed as EC50. The source says:
(§1) A high throughput cell-based screen has been used to identify positive modulators of TrkA and TrkB. The screen involves the use of cell-based assay overexpressing TrkA or TrkB. The purpose of the assay is to identify compounds that modulate neurotrophin signalling (Forsell et al 2012). The assay can be used in inhibitor mode using a high concentration of ligand, in modulator mode using an intermediate concentration and in agonist mode using a low concentration of ligand.
(§2) The assay uses Enzyme Fragment Complementation (EFC) technique, which is a proximity-based assay. Briefly, cells used in this assay over-express two fusion proteins, i.e. the receptor, which can be either of TrkA or TrkB, fused to a small peptide of beta-galactosidase and an adaptor protein, i.e. SHC1 (or any other Trk-adaptor protein) fused to the major part of beta-galactosidase. […] The proximity between the small activating peptide on the receptor and the major part of beta-galactosidase on the adaptor protein leads to an active beta-galactosidase enzyme. The activation of the receptor is quantified by measuring the amount of active beta-galactosidase by its conversion of a non-luminescent substrate into a luminescent product.
(§3) U2OS-cells, over-expressing TrkA or TrkB, are plated in 96- or 384-well plates and incubated overnight. On the following day, test compound was pre-mixed with ligand (NGF) and the ligand-compound mixture is then added to the cells to yield a final ligand concentration of 10 ng/mL. After 3 hours of incubation at room temperature, the incubation is stopped by the addition of a beta-galactosidase substrate mixture containing detergents. The substrate mixture is incubated for 60 minutes at ambient temperature. The luminescence is thereafter read by the use of a plate reader.

The next assay deals with T2, TrkB (Homo sapiens, UniProt Q16620).
T2 construct: expressed in transfected cells; host or cells: U2OS
Put plainly: cell-based Enzyme Fragment Complementation (EFC) assay, U2OS cells over-expressing TrkB. Conditions: compound pre-mixed with ligand (NGF), final ligand concentration 10 ng/mL, 3 hours at room temperature, read-out: TrkB potency expressed as EC50.
Source text: as §1, §2, §3

For assay [1], the system named is ephrin type-B receptor 2 (EphB2). Conditions: Suzuki et al., FEBS Open Bio 2016; cited from earlier work.

T1 sequence (P04629 33-796): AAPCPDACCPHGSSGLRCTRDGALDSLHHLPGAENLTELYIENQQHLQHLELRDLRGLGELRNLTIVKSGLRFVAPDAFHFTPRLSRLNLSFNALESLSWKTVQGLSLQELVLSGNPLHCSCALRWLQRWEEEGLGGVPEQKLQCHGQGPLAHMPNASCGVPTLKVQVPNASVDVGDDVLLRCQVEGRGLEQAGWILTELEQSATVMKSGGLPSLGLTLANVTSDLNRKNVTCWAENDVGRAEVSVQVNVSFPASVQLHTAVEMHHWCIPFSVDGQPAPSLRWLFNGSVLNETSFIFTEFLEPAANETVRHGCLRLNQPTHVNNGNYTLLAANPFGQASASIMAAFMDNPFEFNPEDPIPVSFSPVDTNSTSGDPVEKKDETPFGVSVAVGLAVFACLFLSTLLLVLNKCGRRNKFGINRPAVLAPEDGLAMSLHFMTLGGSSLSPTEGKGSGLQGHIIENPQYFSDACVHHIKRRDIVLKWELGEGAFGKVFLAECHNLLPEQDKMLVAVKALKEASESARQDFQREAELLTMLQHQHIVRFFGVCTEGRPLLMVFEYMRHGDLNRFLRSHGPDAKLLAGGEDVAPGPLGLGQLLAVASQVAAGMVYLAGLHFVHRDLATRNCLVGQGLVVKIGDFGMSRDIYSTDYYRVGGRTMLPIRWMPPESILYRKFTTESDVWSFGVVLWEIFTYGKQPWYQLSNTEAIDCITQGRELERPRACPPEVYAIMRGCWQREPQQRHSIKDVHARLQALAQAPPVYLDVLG
T2 sequence (Q16620 32-822): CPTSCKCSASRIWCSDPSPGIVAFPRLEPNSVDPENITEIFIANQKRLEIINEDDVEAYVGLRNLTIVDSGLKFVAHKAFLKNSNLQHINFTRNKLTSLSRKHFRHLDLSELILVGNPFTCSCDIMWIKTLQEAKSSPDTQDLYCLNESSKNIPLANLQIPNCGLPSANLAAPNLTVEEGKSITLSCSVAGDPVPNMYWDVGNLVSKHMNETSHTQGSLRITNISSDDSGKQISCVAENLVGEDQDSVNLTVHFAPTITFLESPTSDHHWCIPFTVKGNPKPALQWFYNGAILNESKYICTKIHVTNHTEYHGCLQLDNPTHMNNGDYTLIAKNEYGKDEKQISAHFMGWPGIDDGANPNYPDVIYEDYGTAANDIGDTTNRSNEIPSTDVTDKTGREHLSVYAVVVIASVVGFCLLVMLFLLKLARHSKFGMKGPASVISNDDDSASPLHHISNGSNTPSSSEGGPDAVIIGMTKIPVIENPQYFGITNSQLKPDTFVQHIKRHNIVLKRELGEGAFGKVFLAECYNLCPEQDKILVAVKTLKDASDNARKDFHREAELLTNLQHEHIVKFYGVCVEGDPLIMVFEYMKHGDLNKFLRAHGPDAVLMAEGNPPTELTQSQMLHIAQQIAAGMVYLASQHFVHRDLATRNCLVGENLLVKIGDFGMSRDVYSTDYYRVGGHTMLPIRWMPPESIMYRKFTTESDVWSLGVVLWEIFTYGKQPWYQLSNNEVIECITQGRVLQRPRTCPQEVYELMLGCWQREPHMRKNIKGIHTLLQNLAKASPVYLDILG

On to `Cc1ccc(-c2ccc(-n3c(=O)[nH]c(=O)n(-c4ccccc4)c3=O)cc2C)o1` [Example 4, 1-[3-methyl-4-(5-methylfuran-2-yl)phenyl]-3-phenyl-1,3,5-triazinane-2,4,6-trione], for which the EC50 was found to be 6.77 µM on TrkA and 2.08 µM at TrkB.

In the case of `Cc1cc(-n2c(=O)[nH]c(=O)n(C)c2=O)ccc1Oc1ccc(SC(F)(F)F)cc1` [toltrazuril, 1-methyl-3-(3-methyl-4-{4-[(trifluoromethyl)sulfanyl]phenoxy}phenyl)-1,3,5-triazinane-2,4,6-trione], the “inhibits the binding of p-amyloid oligomers to ephrin type-B receptor 2 (EphB2)” value in assay [1] is reported as 30%.

Take `Cc1cc(-n2c(=O)[nH]c(=O)n(C)c2=O)ccc1-c1ccccc1` [Example 7, 1-methyl-3-{2-methyl-[1,1′-biphenyl]-4-yl}-1,3,5-triazinane-2,4,6-trione]: the EC50 at TrkA came out at 6.71 µM; at TrkB, 20.6 µM.

As to `Cc1cc(-n2c(=O)[nH]c(=O)n(-c3ccccc3)c2=O)ccc1-c1ccccc1` [Example 1, 1-{2-methyl-[1,1′-biphenyl]-4-yl}-3-phenyl-1,3,5-triazinane-2,4,6-trione], the EC50 worked out at 0.18 µM at TrkA and 0.09 µM on TrkB.

As to `Cc1cc(-n2c(=O)[nH]c(=O)n(-c3ccccc3)c2=O)ccc1N1CCCCC1` [Example 2, 1-[3-methyl-4-(piperidin-1-yl)phenyl]-3-phenyl-1,3,5-triazinane-2,4,6-trione], the EC50 at TrkA came out at 1.05 µM; on TrkB, 1.27 µM.

Consider `CCc1ccc(-c2ccc(-n3c(=O)[nH]c(=O)n(C)c3=O)cc2C)cc1` [Example 5, 1-{4′-ethyl-2-methyl-[1,1′-biphenyl]-4-yl}-3-methyl-1,3,5-triazinane-2,4,6-trione], for which the concentration for a half-maximal effect (EC50) was 7.2 µM at TrkA and 3 µM at TrkB.

Regarding `Cc1cc(-n2c(=O)[nH]c(=O)n(-c3ccccc3)c2=O)ccc1-n1cccn1` [Example 8, 1-[3-methyl-4-(1H-pyrazol-1-yl)phenyl]-3-phenyl-1,3,5-triazinane-2,4,6-trione], the figures for the EC50 on TrkA and at TrkB were 5.56 µM and 6.22 µM, respectively.

Turning to `Cc1cc(-n2c(=O)[nH]c(=O)n(-c3ccccc3)c2=O)ccc1C(C)C` [Example 3, 1-[3-methyl-4-(propan-2-yl)phenyl]-3-phenyl-1,3,5-triazinane-2,4,6-trione], the EC50 on TrkA was 7.05 µM; at TrkB, 7.9 µM.

As to `Cc1cccc(-n2c(=O)[nH]c(=O)n(-c3ccc(-n4cccc4)c(C)c3)c2=O)c1` [Example 11, 1-[3-methyl-4-(1H-pyrrol-1-yl)phenyl]-3-(3-methylphenyl)-1,3,5-triazinane-2,4,6-trione], the EC50 at TrkA is 0.1 µM; at TrkB it was 0.07 µM.

As for `Cc1cc(-n2c(=O)[nH]c(=O)n(-c3ccccc3)c2=O)ccc1-n1cccc1` [Example 6, 1-[3-methyl-4-(1H-pyrrol-1-yl)phenyl]-3-phenyl-1,3,5-triazinane-2,4,6-trione], the EC50 on TrkA was determined as 0.24 µM; on TrkB, 0.25 µM.

The record behind these values is patent publication US20210261513A1, “4-SUBSTITUTED PHENYL-1,3,5-TRIAZINE DERIVATIVES AS MODULATORS OF TRK RECEPTORS” (ALZECURE PHARMA AB, priority 2018, published 2021).
